Reference: patent US20250177448A1, “NEW USE OF PEG-PHOSPHOLIPID MOLECULES” (ICOAT MEDICAL AB, priority 2022, published 2025)

What was measured:
[1] = pig, in vivo
Protocol: Before surgery for both long term survival studies (SM and CLSM), samples were collected in EDTA tubes from both donors and recipients for analyses of total and differential white blood cell counts and hematology (EPK, Hb, EVF, MCV, MCHC, reticulocytes, thrombocytes). Plasma samples were analyzed for aspartate amino transferase (ASAT), alanine aminotransferase (ALAT), γ-glutamyltransferase (GT), glutamate dehydrogenase (GLDH), and creatinine at the Section of Clinical Chemistry, SLU, Uppsala.
Clinical appearance was assessed several times each day after surgery and a thorough clinical examination conducted once daily. The urinary bladders were examined every day at 9 am and […] to determine if the transplanted kidney produced urine. When possible, free-flow urine was collected and evaluated macroscopically, and density, pH, blood and protein were measured.
Each kidney was examined once after transplantation by ultrasound (Logiq e R6, GE Healthcare, Wauwatosa, U.S.A.) using linear (10 MHZ) and curvilinear (4 MHZ) probes. The length and echogenicity of the kidney as well as the corticomedullary definition were estimated. Furthermore, it was assessed whether the renal pelvic region was dilated. The blood flow in the kidney was evaluated using color Doppler. […]

CD31 = test: Masking of antigens on HUVECs by coating with PEG-phospholipid, flow cytometry; assay type: cell-based, human; conditions: HUVEC, 0.5 mg/ml, 45 mins RT
Protocol: (§1) One hundred μL of HUVEC cell pellet (5×10^4 cells) were incubated in 0.5 mg/ml of PEG-phospholipid solution (final concentration, polyethylene glycol-phospholipid with PEG of 5 kDa (PEG-phospholipid) in PBS, SUNBRIGHT® PP-050CN, N-(methylpolyoxyethylene oxycarbonyl)-1,2-dipalmitoyl-sn-glycero-3-phosphoethanolamine, sodium salt, NOF Corp., Japan) or PBS for 45 mins at RT. Then, the cells were incubated with 5 μg/mL of FITC labelled antibodies for 15 min at RT: CD31 antibody (5 μg/ml) or isotype control Ab-FITC (BD biosciences) or with rabbit anti von Willebrand Factor (vWF) with rabbit IgG as control, both visualized by Alexa 488 goat anti-rabbit antibodies as given in Table 1.
(§2) Post analysis processing was carried out in FlowJo.

[2] = system: von Willebrand Factor (vWF); test: as above; assay type: cell-based, human; conditions: HUVEC, 0.5 mg/ml, 45 mins RT
Protocol: as §1, §2

[3] = system: porcine kidney transplant, ischemia reperfusion injury; test: Porcine clinical-like allogeneic survival transplantation model (CLSM); assay type: in vivo, pig; conditions: not shown
Excerpt: During and after surgery, systemic blood was collected for up to 4 days and analyzed for creatinine, sodium, potassium and phosphate (Section for Clinical Chemistry, Uppsala University Hospital).
These studies were approved by the Ethics Committee for Animal Experimentation, Uppsala, Sweden, Dnr C123/14. For each of these studies (SM and CLSM) five donor pigs and 10 recipient pigs of both sexes were used. All pigs were certified SPF pigs (Yorkshire×Hampshire) and bred at Lövsta University herd, SLU, Sweden. At arrival to SLU the pigs were 8 weeks old.
For the SM study, the pigs were selected after typing for Swine Leucocyte Antigen (SLA) class 1 in the following manner: the donor pigs were obtained from two litters and not related to any of the recipients. The recipient pigs were siblings, matched in pairs according to SLA class 1 (see below). For the CLSM study, all recipient pigs were siblings and not related to the donors, but these the pigs were not SLA-typed.
CLSM study: In this study, the retrieval of the kidney resembled the standard operative procedure of human organ procurement. Each donor was randomized to either PEG-phospholipid or HTK treatment. […]
The recipient pigs underwent allogeneic single kidney transplantation. […] By using a urine stick the sample was analyzed for proteinurea and hematuria. […]

Substance: N-(methylpolyoxyethylene oxycarbonyl)-1,2-dipalmitoyl-sn-glycero-3-phosphoethanolamine [PEG-phospholipid]
- toxicity or safety concerns regarding clinical, laboratory, or pathology parameters [1]: No toxicity or safety concerns
- masking of CD31 (CD31): < 20%
- detection of vWF [2]: did not decrease
- complement and coagulation markers (C3a, sC5b-9, TAT, C3b) ([3]; displaying lower values): confirmed these results
- cytokines / systemic inflammation [3]: confirmed these results
